For the data set, the target named is KRAS. The settings on record: ASO.

Our source for the target mRNA inhibition values is the OligoGym collection.

Where “and” joins values, the source holds several entries; their conditions need not be identical. Equal values may be shown once. After the bases stand the sugars from the 5' end (letter, count) and the backbone: PS all phosphorothioate, else s phosphorothioate and o phosphodiester by linkage. Methylation of C is not given here. e = 2'-O-(2-methoxyethyl) (MOE); k = constrained ethyl (cEt); d = 2'-deoxy (DNA)

TTATGCAATGTTAATT (sugars k3 d10 k3, PS) had a target mRNA inhibition (A431, 2 µM) of 3%.
Same read-out and setting: under ATATCCACAGCAGCAG (sugars k3 d10 k3, PS) stands 39%.
The sequence GTGCAATGGTGACAAC (sugars k3 d10 k3, PS) registered a target mRNA inhibition (A431, 2 µM) of 38%.
On the same count and under the same terms, under “TTAGTGATTAGGTCAA (sugars k3 d9 k3 e1, PS)” stands 53%; under GTAAAAGCTAACAGTC (sugars k3 d10 k3, PS), 21%.
Same read-out and setting: under CACTTCATTGTTTAAA (sugars k3 d10 k3, PS) stands 12%.
Regarding “GGAGTCTTTATAGTAA (sugars kkddddddddddkeke, PS)”, the target mRNA inhibition reads like this: (A431, 0.185 µM) 27%; (A431, 0.556 µM) 45%; (A431, 1.667 µM) 57%; (A431, 2 µM) 55%; (A431, 5 µM) 82%.
On to GGTGTAACATAGGTTA (sugars k3 d10 k3, PS), for which the target mRNA inhibition runs as follows: (A431, 0.185 µM) 7%; (A431, 0.556 µM) 29%; (A431, 1.667 µM) 47%; (A431, 2 µM) 55% and 50%; (A431, 5 µM) 67%.
“CAGTGTGACTCAGTTA (sugars kkddddddddddkeke, PS)” came in with a target mRNA inhibition (A431, 2 µM) of 51%.
Still for that read-out and setting: as for TAGGAGTCTTTATAGT (sugars k3 d10 k3, PS), the figure is 41%; as for TTACTTATGCAGAGAA (sugars k3 d10 k3, PS), 46%.
TATAATAATCCCCATT (sugars k3 d10 k3, PS): the target mRNA inhibition (A431, 2 µM) worked out at 7%.
For the setting “A431, 2 µM”, AAGGTAAAAGCTAACA (sugars k3 d10 k3, PS) had a target mRNA inhibition of 21%.
Still for that read-out and setting: as for “TGATTTGTCAGCAGGA (sugars kkkddddddddkekek, PS)”, the figure is 41%; as for ACAGATTGTGCTGAGC (sugars k3 d10 k3, PS), 46%; as for “TGTTTATGCAATGTTA (sugars kkddddddddddkeke, PS)”, 23%.
Where the note is “A431, 2 µM”, AAGTGTTTATGCAATG (sugars k3 d10 k3, PS) gave a target mRNA inhibition of 45%.
For “GATTGTGCTGAGCTTG (sugars kkdddddddddkekek, PS)”, the target mRNA inhibition (A431, 2 µM) amounted to 45%.
Still for that read-out and setting: as for GGCAAGATGACACTAA (sugars k3 d10 k3, PS), the figure is 30%.
The same measure, in the same setting: under AGTTTCACATAGCAAT (sugars k3 d10 k3, PS) stands 38%; under TAATGTCACAAGCAGA (sugars k3 d10 k3, PS), 52%.
Same read-out and setting: under “CCAGTGTTAAGAGAAC (sugars kkddddddddddkeke, PS)” stands 42%.
As to “ATGGTGTAACATAGGT (sugars kkddddddddddkeke, PS)”, the target mRNA inhibition by setting is: (A431, 0.185 µM) 22%; (A431, 0.556 µM) 39%; (A431, 1.667 µM) 60%; (A431, 2 µM) 65%; (A431, 5 µM) 69%.
Sequence “GTGTGACTCAGTTAAA (sugars kdddddddddkekeke, PS)” gave a target mRNA inhibition (A431, 2 µM) of 25%.
Same read-out and setting: as for GGTAAAAGCTAACAGT (sugars k3 d10 k3, PS), the figure is 49%; as for “GTCCAGTGATACTTTC (sugars kkddddddddkekekk, PS)”, 22%; as for GGGAATTACAAGTATT (sugars k3 d10 k3, PS), 28%.
Same read-out and setting: under “AGATTGTGCTGAGCTT (sugars kddddddddddkekek, PS)” stands 7%; under “TGCTGTGAAACTCTCT (sugars kkddddddddkekekk, PS)”, 5%.
For the setting “A431, 2 µM”, AACGAGAATGGATATT (sugars k3 d10 k3, PS) displayed a target mRNA inhibition of 4%.
The same measure, in the same setting: as for AGATGGTGTAACATAG (sugars k3 d10 k3, PS), the figure is 39%.
The same measure, in the same setting: as for “ATGGTGTAACATAGGT (sugars kkkddddddddkdkdk, PS)”, the figure is 36%.
Where the note is “A431, 2 µM”, “TCCATTTATGTGACTA (sugars kkkddddddddkdkdk, PS)” registered a target mRNA inhibition of 16%.
On the same count and under the same terms, under TTGTGCAATGGTGACA (sugars k3 d10 k3, PS) stands 29%.
For “ATGGTGTAACATAGGT (sugars kkkdddddddddkeke, PS)”, the target mRNA inhibition (A431, 2 µM) came to 43%.
CTCTATGAAAGCTCAA (sugars k3 d10 k3, PS) gave a target mRNA inhibition (A431, 2 µM) of 39%.
“ACCATTCAAAGTTCAC (sugars k3 d9 k3 e1, PS)” displayed a target mRNA inhibition (A431, 2 µM) of 42%.
Same read-out and setting: under “CCATTTATGTGACTAG (sugars kkkddddddddkekek, PS)” stands 36%.
Regarding ATCTTTTAATGTCACA (sugars k3 d10 k3, PS), the target mRNA inhibition (A431, 0.037 µM) is 74%; the target mRNA inhibition (A431, 2 µM) came to 58%; the target mRNA inhibition (A431, 5 µM) is 97% and 96%; the target mRNA inhibition (NCI-H460, 0.037 µM) is 65.3%.
TGCAATGTTAATTTAA (sugars k3 d10 k3, PS): the target mRNA inhibition (A431, 2 µM) is 13%.
Same read-out and setting: under “GTTTATGCAATGTTAA (sugars kddddddddddkekek, PS)” stands 37%; under “GTGTGACTCAGTTAAA (sugars kddddddddddkekek, PS)”, 30%.
The same measure, in the same setting: as for TGTGCAATGGTGACAA (sugars k3 d10 k3, PS), the figure is 28%.
